Converted amounts (≈) assume the structure as drawn. Where two headings read alike, the source gives them in different places.
Assays:
[1] = tested on: Mtb mc^26230; test: MIC determination of compounds alone; format: cell-based, Mycobacterium tuberculosis; conditions: for MIC mc^26230: compound alone, duplicate; for MIC: Mycobacterium tuberculosis, read-out: MIC mc^26230
[2] = target: T1, Mtb Eis (Mycobacterium tuberculosis, UniProt P9WFK7); test: Eis acetylation assay; format: biochemical
[3] = target: T1, Mtb Eis; format: biochemical; conditions: for mode of inhibition with respect to KAN: Michaelis-Menten analysis of KAN acetylation by Eis
[4] = target: AAC(2’)-Ic (Mycobacterium tuberculosis, UniProt P9WQG9); test: Inhibitor selectivity, NEO acetylation assay; format: biochemical; conditions: concentrations up to 200 μM
Chain of AAC(2’)-Ic (P9WQG9 whole entry): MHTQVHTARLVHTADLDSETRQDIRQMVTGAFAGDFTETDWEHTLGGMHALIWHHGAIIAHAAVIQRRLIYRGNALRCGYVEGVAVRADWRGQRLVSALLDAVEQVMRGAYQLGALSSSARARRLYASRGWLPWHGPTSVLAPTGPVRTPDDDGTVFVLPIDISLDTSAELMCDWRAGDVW

[5] = target: AAC(3)-IV (Salmonella sp, UniProt P08988); format: biochemical; conditions: concentrations up to 200 μM
Chain of AAC(3)-IV (P08988 whole entry): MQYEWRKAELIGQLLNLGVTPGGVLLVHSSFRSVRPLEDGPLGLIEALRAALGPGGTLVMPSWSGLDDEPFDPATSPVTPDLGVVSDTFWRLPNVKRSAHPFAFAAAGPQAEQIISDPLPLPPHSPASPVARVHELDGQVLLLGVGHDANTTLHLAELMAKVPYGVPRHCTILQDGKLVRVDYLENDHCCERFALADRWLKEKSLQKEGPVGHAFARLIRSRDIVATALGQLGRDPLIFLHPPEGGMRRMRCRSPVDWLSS

[6] = target: AAC(6’)-Ie/APH(2”)-Ia (Staphylococcus aureus, UniProt P0A0C1); test: Inhibitor selectivity, NEO acetylation assay; format: biochemical; conditions: concentrations up to 200 μM
Chain of AAC(6’)-Ie/APH(2”)-Ia (P0A0C1 whole entry): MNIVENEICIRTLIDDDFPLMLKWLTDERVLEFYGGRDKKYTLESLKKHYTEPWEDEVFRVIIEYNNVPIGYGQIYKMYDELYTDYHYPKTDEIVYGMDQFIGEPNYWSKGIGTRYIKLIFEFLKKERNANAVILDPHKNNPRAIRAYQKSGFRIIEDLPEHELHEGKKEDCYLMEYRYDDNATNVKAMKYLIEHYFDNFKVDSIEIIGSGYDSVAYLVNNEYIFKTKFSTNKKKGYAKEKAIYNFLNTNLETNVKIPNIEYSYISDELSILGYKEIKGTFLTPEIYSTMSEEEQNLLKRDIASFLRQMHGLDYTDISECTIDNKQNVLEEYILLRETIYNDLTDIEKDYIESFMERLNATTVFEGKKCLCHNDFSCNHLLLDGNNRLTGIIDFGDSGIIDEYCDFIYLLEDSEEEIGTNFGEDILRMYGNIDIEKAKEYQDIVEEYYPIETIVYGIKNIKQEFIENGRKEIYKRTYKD

[7] = target: T1, Mtb Eis; test: Screening acetylation assay with NEO as substrate; format: biochemical; conditions: conditions of the original high-throughput assay; compound 20 μM, NEO 100 μM
[8] = with respect to KAN, global nonlinear regression fit
[9] = Eis 0.25 μM, KAN 100 μM, AcCoA 0.5 mM, Tris-HCl pH 8.0, triplicate

T1 sequence (P9WFK7 whole entry): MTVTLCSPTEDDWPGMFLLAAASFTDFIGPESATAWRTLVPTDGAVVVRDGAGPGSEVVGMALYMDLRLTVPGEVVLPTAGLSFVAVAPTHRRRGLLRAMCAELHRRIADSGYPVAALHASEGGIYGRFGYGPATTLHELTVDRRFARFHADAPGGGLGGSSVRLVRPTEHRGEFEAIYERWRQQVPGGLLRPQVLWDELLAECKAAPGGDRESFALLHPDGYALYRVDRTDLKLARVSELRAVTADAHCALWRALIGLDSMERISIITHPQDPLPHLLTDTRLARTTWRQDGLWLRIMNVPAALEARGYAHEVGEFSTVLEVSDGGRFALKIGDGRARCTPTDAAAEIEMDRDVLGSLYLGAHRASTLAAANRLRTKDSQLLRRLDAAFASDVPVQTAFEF

SMILES | MIC mc^26230 [1] [µM] | IC50 [2] [µM] | Ki [3] [µM] | MIC [1] [µM] | inhibition of NEO acetylation by AAC(2’)-Ic [4] | inhibition of NEO acetylation by AAC(3)-IV [5] | inhibition of NEO acetylation by AAC(6’)-Ie [6] | mode of inhibition with respect to KAN [3] | Ki,u (equilibrium constant for inhibitor binding to enzyme-substrate complex) [3, 8] | also measured
NC[C@H]1O[C@H](O[C@H]2[C@H](O)[C@@H](O[C@H]3O[C@H](CO)[C@@H](O)[C@H](N)[C@H]3O)[C@H](N)C[C@@H]2N)[C@H](O)[C@@H](O)[C@@H]1O [Kanamycin (KAN), Kanamycin] | 0.17 (≈ 0.0824 µg/mL) | – | – | – | – | – | – | – | – | –
[H]/N=C(\N/C(=N/[H])Nc1ccc(Cl)cc1)NC(C)C [Proguanil (PRO), Proguanil] | – | 30 ± 7 | 28 ± 10 | > 64 | not inhibited | not inhibited | not inhibited | – | – | inhibition of NEO acetylation activity of Mtb Eis [7]: detectable inhibition
CN1CCCC(n2nc(Cc3ccc(Cl)cc3)c3ccccc3c2=O)CC1 (stereo not shown) [Azelastine (AZL), Azelastine] | – | 0.79 ± 0.08 | 0.24 ± 0.05 | 32 (≈ 12.2 µg/mL) | not inhibited | not inhibited | not inhibited | competitive | 0.9 ± 0.5 (p = 0.08) μM | –
COc1ccc(C(CN(C)C)C2(O)CCCCC2)cc1 (stereo not shown) [Venlafaxine (VEN), Venlafaxine] | – | 134 ± 21 | – | > 64 | – | – | – | – | – | inhibition of NEO acetylation activity of Mtb Eis [7]: detectable inhibition
Fc1ccc(NN=Cc2ccc(Cl)cc2)cc1 [Compound 3] | > 64 | – | – | – | – | – | – | – | – | IC50 [2, 9]: > 200 µM; IC50 fold higher than that of PRO ([2]; ratio of IC50 values vs PRO): > 7 fold
Fc1cccc(NN=Cc2ccc(Cl)cc2)c1 [Compound 2] | > 64 | – | – | – | – | – | – | uncompetitive inhibition | 104 ± 8 µM | IC50 [2, 9]: 160 ± 49 µM; IC50 fold higher than that of PRO ([2]; ratio of IC50 values vs PRO): 5 fold
[H]/N=C(\N/C(=N/[H])NCCCCCCNC(=N)NC(=N)Nc1ccc(Cl)cc1)Nc1ccc(Cl)cc1 [Chlorhexidine (CHX), Chlorhexidine] | – | – | – | ≤ 0.03 | – | – | – | – | – | –
NNC(=O)c1ccncc1 [Isoniazid (INH), Isoniazid] | – | – | – | ≤ 3.6 | – | – | – | – | – | –
CCN(CC)CCCC(C)Nc1ccnc2cc(Cl)ccc12 (stereo not shown) [Chloroquine (CHQ), Chloroquine] | – | 20 ± 2 | 12.3 ± 2.7 | 64 (≈ 20.5 µg/mL) | not inhibited | not inhibited | not inhibited | competitive | 35 ± 20 (p = 0.1) μM | –
OC(c1cc(C(F)(F)F)nc2c(C(F)(F)F)cccc12)C1CCCCN1 (stereo not shown) [Mefloquine (MEF), Mefloquine] | – | 4.2 ± 0.8 | 7.2 ± 1.1 | 16 (≈ 6.05 µg/mL) | not inhibited | not inhibited | not inhibited | – | 5.9 ± 1.3 (p = 0.0002) μM | –
NC(N)=NN=Cc1ccc(Cl)cc1 [Compound 1] | > 64 | – | – | – | – | – | – | competitive inhibition | – | IC50 [2, 9]: 10 ± 3 µM; fold more potent than PRO as an Eis inhibitor ([2]; ratio of IC50 values vs PRO): 3 fold; Ki ([3]; read-out: Ki (equilibrium constant for inhibitor binding to free enzyme), with respect to KAN, global nonlinear regression fit): 17 ± 2.4 µM
